# Reference: ChEMBL document CHEMBL3885861, “Open TG-GATES”
# Species on record: Rattus norvegicus
# Test: Open TG-GATES - Regimen: Single
# Assay type: toxicity, organism-based, Sprague-Dawley
# Set-up: regimen Single, gender Male, age 6 weeks
# Conditions: in vivo, po, route gavage; for Bas / Eos / Fbg / Hb / Ht / Lym / MCH / MCHC / MCV / Mono / Neu / PT / Plat / RBC / Ret / WBC: tissue Blood; for KIDNEY_L / KIDNEY_R / KIDNEY_TOTAL: tissue Kidney; for LIVER: tissue Liver; for ALP / ALT / AST / BUN / CRE / Ca / Cl / DBIL / GLC / IP / K / LDH / Na / PL / RALB / TBIL / TC / TG / TP / gamma-GTP: tissue Plasma
# [1] = 0 mg/kg, 24 h, dose level Control
compound,measurement,setting,value
CN(C)CCCN1c2ccccc2Sc2ccc(Cl)cc21 [CHLORPROMAZINE],TERMINAL_BW,[1],233.7 g
same,Bas,[1],0.8%
same,Eos,[1],1.2%
same,Fbg,[1],230.4 mg/dL
same,Hb,[1],13 g/dL
same,Ht,[1],38.5%
same,Lym,[1],79%
same,MCH,[1],21.2 pg
same,MCHC,[1],33.8%
same,MCV,[1],62.8 fL
same,Mono,[1],3%
same,Neu,[1],15.8%
same,PT,[1],11.7 s
same,Plat,[1],133.9 x10_4/uL
same,RBC,[1],613.8 x10_4/ul
same,Ret,[1],7.4%
same,WBC,[1],115.9 x10_2/uL
same,KIDNEY_L,[1],1 g
same,KIDNEY_R,[1],1 g
same,KIDNEY_TOTAL,[1],2 g
same,LIVER,[1],10.7 g
same,ALP,[1],1074.4 IU/L
same,ALT,[1],34.8 IU/L
same,AST,[1],73.8 IU/L
same,BUN,[1],16 mg/dL
same,CRE,[1],0.5 mg/dL
same,Ca,[1],10.8 mg/dL
same,Cl,[1],103.8 meq/L
same,DBIL,[1],0.058 mg/dL
same,GLC,[1],203 mg/dL
same,IP,[1],7 mg/dL
same,K,[1],4 meq/L
same,LDH,[1],192.2 IU/L
same,Na,[1],141.2 meq/L
same,PL,[1],140 mg/dL
same,RALB,[1],3.4 g/dL
same,TBIL,[1],0.1 mg/dL
same,TC,[1],78.6 mg/dL
same,TG,[1],80.2 mg/dL
same,TP,[1],5.6 g/dL
same,gamma-GTP,[1],1 IU/L
same,TERMINAL_BW,"45 mg/kg, 3 h, dose level Low",220 g
same,Bas,"45 mg/kg, 3 h, dose level Low",0%
same,Eos,"45 mg/kg, 3 h, dose level Low",1%
same,Fbg,"45 mg/kg, 3 h, dose level Low",221.8 mg/dL
same,Hb,"45 mg/kg, 3 h, dose level Low",12.5 g/dL
same,Ht,"45 mg/kg, 3 h, dose level Low",36.7%
same,Lym,"45 mg/kg, 3 h, dose level Low",79.4%
same,MCH,"45 mg/kg, 3 h, dose level Low",21 pg
same,MCHC,"45 mg/kg, 3 h, dose level Low",33.9%
same,MCV,"45 mg/kg, 3 h, dose level Low",61.9 fL
same,Mono,"45 mg/kg, 3 h, dose level Low",2.2%
same,Neu,"45 mg/kg, 3 h, dose level Low",17%
same,PT,"45 mg/kg, 3 h, dose level Low",12.1 s
same,Plat,"45 mg/kg, 3 h, dose level Low",127.9 x10_4/uL
same,RBC,"45 mg/kg, 3 h, dose level Low",594 x10_4/ul
same,Ret,"45 mg/kg, 3 h, dose level Low",7.8%
same,WBC,"45 mg/kg, 3 h, dose level Low",55.8 x10_2/uL
same,KIDNEY_L,"45 mg/kg, 3 h, dose level Low",0.9 g
same,KIDNEY_R,"45 mg/kg, 3 h, dose level Low",0.9 g
same,KIDNEY_TOTAL,"45 mg/kg, 3 h, dose level Low",1.8 g
same,LIVER,"45 mg/kg, 3 h, dose level Low",10.3 g
same,ALP,"45 mg/kg, 3 h, dose level Low",910.4 IU/L
same,ALT,"45 mg/kg, 3 h, dose level Low",31.6 IU/L
same,AST,"45 mg/kg, 3 h, dose level Low",66.4 IU/L
same,BUN,"45 mg/kg, 3 h, dose level Low",10.2 mg/dL
same,CRE,"45 mg/kg, 3 h, dose level Low",0.4 mg/dL
same,Ca,"45 mg/kg, 3 h, dose level Low",10.9 mg/dL
same,Cl,"45 mg/kg, 3 h, dose level Low",105.6 meq/L
same,DBIL,"45 mg/kg, 3 h, dose level Low",0.066 mg/dL
same,GLC,"45 mg/kg, 3 h, dose level Low",244.4 mg/dL
same,IP,"45 mg/kg, 3 h, dose level Low",10.2 mg/dL
same,K,"45 mg/kg, 3 h, dose level Low",3.8 meq/L
same,LDH,"45 mg/kg, 3 h, dose level Low",210 IU/L
same,Na,"45 mg/kg, 3 h, dose level Low",144.8 meq/L
same,PL,"45 mg/kg, 3 h, dose level Low",151 mg/dL
same,RALB,"45 mg/kg, 3 h, dose level Low",3.5 g/dL
same,TBIL,"45 mg/kg, 3 h, dose level Low",0.1 mg/dL
same,TC,"45 mg/kg, 3 h, dose level Low",77.8 mg/dL
same,TG,"45 mg/kg, 3 h, dose level Low",77 mg/dL
same,TP,"45 mg/kg, 3 h, dose level Low",5.4 g/dL
same,gamma-GTP,"45 mg/kg, 3 h, dose level Low",1 IU/L
same,TERMINAL_BW,"45 mg/kg, 6 h, dose level Low",214.5 g
same,Bas,"45 mg/kg, 6 h, dose level Low",0.2%
same,Eos,"45 mg/kg, 6 h, dose level Low",1%
same,Fbg,"45 mg/kg, 6 h, dose level Low",221.8 mg/dL
same,Hb,"45 mg/kg, 6 h, dose level Low",12.5 g/dL
same,Ht,"45 mg/kg, 6 h, dose level Low",36.9%
same,Lym,"45 mg/kg, 6 h, dose level Low",69.4%
same,MCH,"45 mg/kg, 6 h, dose level Low",21 pg
same,MCHC,"45 mg/kg, 6 h, dose level Low",34%
same,MCV,"45 mg/kg, 6 h, dose level Low",62 fL
same,Mono,"45 mg/kg, 6 h, dose level Low",2.2%
same,Neu,"45 mg/kg, 6 h, dose level Low",26%
same,PT,"45 mg/kg, 6 h, dose level Low",12 s
same,Plat,"45 mg/kg, 6 h, dose level Low",129.9 x10_4/uL
same,RBC,"45 mg/kg, 6 h, dose level Low",596.2 x10_4/ul
same,Ret,"45 mg/kg, 6 h, dose level Low",8.2%
same,WBC,"45 mg/kg, 6 h, dose level Low",48 x10_2/uL
same,KIDNEY_L,"45 mg/kg, 6 h, dose level Low",1 g
same,KIDNEY_R,"45 mg/kg, 6 h, dose level Low",0.9 g
same,KIDNEY_TOTAL,"45 mg/kg, 6 h, dose level Low",1.9 g
same,LIVER,"45 mg/kg, 6 h, dose level Low",9.4 g
same,ALP,"45 mg/kg, 6 h, dose level Low",861 IU/L
same,ALT,"45 mg/kg, 6 h, dose level Low",29.6 IU/L
same,AST,"45 mg/kg, 6 h, dose level Low",68.4 IU/L
same,BUN,"45 mg/kg, 6 h, dose level Low",8.6 mg/dL
same,CRE,"45 mg/kg, 6 h, dose level Low",0.4 mg/dL
same,Ca,"45 mg/kg, 6 h, dose level Low",10.5 mg/dL
same,Cl,"45 mg/kg, 6 h, dose level Low",106.4 meq/L
same,DBIL,"45 mg/kg, 6 h, dose level Low",0.07 mg/dL
same,GLC,"45 mg/kg, 6 h, dose level Low",249.6 mg/dL
same,IP,"45 mg/kg, 6 h, dose level Low",10.8 mg/dL
same,K,"45 mg/kg, 6 h, dose level Low",3.6 meq/L
same,LDH,"45 mg/kg, 6 h, dose level Low",219.6 IU/L
same,Na,"45 mg/kg, 6 h, dose level Low",144.8 meq/L
same,PL,"45 mg/kg, 6 h, dose level Low",138.2 mg/dL
same,RALB,"45 mg/kg, 6 h, dose level Low",3.4 g/dL
same,TBIL,"45 mg/kg, 6 h, dose level Low",0.1 mg/dL
same,TC,"45 mg/kg, 6 h, dose level Low",79.2 mg/dL
same,TG,"45 mg/kg, 6 h, dose level Low",19.2 mg/dL
same,TP,"45 mg/kg, 6 h, dose level Low",5.4 g/dL
same,gamma-GTP,"45 mg/kg, 6 h, dose level Low",1 IU/L
